One molecule from US4440757A, “Pharmaceutical composition comprising derivative of aminobenzoic acid for regulating prostaglandin” (priority 1978, dated 1984) can be followed below.

Assay [1] concerns Ehrlich cancer cells. The assay can be described thus: PGE in cancer cells and ascites of mouse transplanted with Ehrlich cancer cells. It is filed as in vivo, female ICR-JCL mouse. Conditions: 200 mg/kg/day i.p., 5 days. Here is the method:
To groups of female ICR-JCL mouse after 5 weeks of her birth, Ehrlich cancer cells were intraperitoneally transplanted at a rate of 1×10^6 cells/animal and one of the present substances, Specimen No. 7 was administered intraperitoneally to the mice every day from the next day of transplantation for 5 days at a rate of 200 mg/kg/day. The mice were sacrificed with ether on the 6th day of transplantation, and the ascites were collected. After adding tetrasodium ethylenediamminetetraacetate with 1% by weight of aspirin into the ascites, it was centrifugated for 10 min at 1500 rpm and a temperature of 4° C. to separate the cancer cells and the supernatant liquid. The supernatant liquid was further centrifugated at 4° C. and 3000 rpm for 15 min. The separated cancer cells was washed with Hank's solution, and was subjected to centrifugation 5 times at 800 rpm for each 5 min to remove impurities such as erythrocytes, etc. The thus purified cancer cells of 1×10^8 in number were homogenized at 0° C. after addition of 7 ml of methanol, and the homogenate was filtered with filter paper. After adding 14 ml of chloroform to the filtrate and mixing, the mixture was left for 30 min at a temperature of 4° C. […] The content of PGE in the solution and in the supernatant liquid of the ascites was determined by ^3 H-ProstaglandinE Radioimmunoassay Kit. […]

Another assay relates to Sato's lung cancer. Description: Translocation of dye-staff to Sato's lung cancer. Particulars: 1000 mg/kg p.o. once; control 30.0. It is filed as in vivo, donryu rat. Here is the method:
On the back of a donryu rat, a lump of Sato's lung cancer of 5 mm in size was subcutaneously transplanted.
(§1) On the axillary part of an ICR mouse, 10^6 cells of sarcoma 180 were subcutaneously transplanted. While feeding the both animals, the present substance, Specimen No. 7, was forcibly administered orally once at a rate of 1000 mg/kg on 16th day of the transplantation and an aqueous 2% solution of Lissamine Green (a dye-staff manufactured by Imperial Chem. Ind. Co.) was injected into the caudal vein of the animal at a rate of 1 ml for a rat and 0.5 ml for a mouse.
(§2) After one hour of the injection, the animal was sacrificed to extirpate the proliferated tumour. The tumour of the rat was finely cut and homogenized with an aqueous 50% solution of ethanol. After diluting the homogenate with an addition of the solution to a total volume of 50 ml, the liquid was centrifugated for 15 min at 1000 rpm to separate the supernatant liquid. The content of the dye-staff was determined on the supernatant liquid itself or after dilution by spectrophotometry using its absorption maximum of 630 nm.

For assay [2], the system named is sarcoma 180 tumour cells, cyclic AMP. Description: Level of cyclic AMP in tumour cells of sarcoma 180. It counts as cell-based, mouse. Conditions: room temperature, 5 min. Here is the method:
The present substance was added to 100 μl of the ascites-type tumour taken from the abdominal cavity of sarcoma 180-bearing mice to be a predetermined concentration, in this case, Specimen No. 7, and the mixture was incubated at room temperature for 5 min. After incubation, the culture was boiled, homogenized and centrifugated to obtain a supernatant liquid. The thus obtained supernatant liquid was subjected to the determination of cyclic AMP by the method of Gilman. […] The participation of the present substance in the metabolism of PGs is presumed also from this fact.

Assay [3] relates to Ehrlich cancer cells. The assay can be described thus: PGE in Ehrlich tumour tissue and tumour proliferation (i.p.). It is filed as in vivo, female C57BL/6 mouse. Conditions: 100 mg/kg i.p. every other day, 14th day. Here is the method:
Ehrlich cancer cells were transplanted subcutaneously to groups of female C57BL/6 mouse after 9 weeks of birth at a rate of 1×10^6 and while feeding the mice, the present substance, Specimen No. 7, was intraperitoneally administered to the mice every other day from the next day of the transplantation at a rate of 100 mg/kg. On 14th day of the transplantation, the mice were sacrificed with ether to extirpate the tumor tissue. After homogenizing the tumour tissue finely cut by scissors with the addition of 7 ml of methanol per gram of the tumour tissue at a temperature of 0° C., the homogenate was filtered with filter paper to obtain a filtrate. After adding 2 times by volume of chloroform to the filtrate, the mixture was well mixed and left for 30 min at 4° C. Then, the cooled mixture was subjected to the same procedures as in Example 11 to determine the content of PGE in the tumour tissue. The content of PGE in the tumour tissue was larger in the animal transplanted with the cancer cells and administered with the present substance than in the control transplanted with the same cancer cells but not administered with the present substance. This face gives an information concerning the participation of the present substance in the metabolism of PGs.

A further assay concerns Ehrlich's cancer cell. The assay can be described thus: PGE in Ehrlich tumour and tumour weight (oral). Particulars: 1 g/kg/day oral. It is filed as in vivo, female C57BL/6 mouse. Here is the method: Ehrlich's cancer cell were transplanted subcutaneously to groups of female C57BL/6 mouse after 8 weeks of her birth and while feeding the mice, the present substance, Specimen No. 7, was orally administered to each mouse every day at a rate of 1 g/kg/day. On 7th or 14th day of the transplantation, the mice were sacrificed with ether to extirpated the tumour. The tumour was treated by the same procedures as in Example 11 to determine the content of PGE therein. The concentration of PGE in the tumour was larger in the animal transplanted with the cells and administered with the present substance than in the control to which the same cells were transplanted but the present substance was not administered. Further it is observed that the content of PGE decreased in both groups as the time passed, and the rate of decrease was smaller in the group transplanted and administered than in the control group transplanted but not administered. These facts give the information that the present substance participates to the metabolism of PGE.

For another assay, the system named is sarcoma 180. Description: Translocation of dye-staff to sarcoma 180 (visual). It counts as in vivo, ICR mouse. Conditions: 1000 mg/kg p.o. once. Here is the method: as §1, §2

For the molecule `O=C(O)c1ccc(NC2OC[C@@H](O)[C@H](O)[C@H]2O)cc1` (stereo partly drawn) [Specimen No. 7, Sodium p-aminobenzoate-N--D-xyloside], in the assay on Ehrlich cancer cells [1] (control 0.26), the “Content of PGE in supernatant liquid of ascites” value came out at 0.12 ng. The “Content of PGE in 10^8 cells” value in the assay with Ehrlich cancer cells [1] (control 2.36) is 3.06 ng. In the assay with Sato's lung cancer, this molecule registered an Amount of dye-staff of 51.0 μg/g tumour. In assay [2], the “level of cyclic AMP in tumour cells (FIG. 10)” value is given as “raising the level of cyclic AMP in the tumour cells of sarcoma 180”. The “Weight of tumour tissue” value in the assay on Ehrlich cancer cells [3] (control 1.30) is reported as 0.75 g. For the same molecule, the “Content of PGE in the tumour tissue” value with Ehrlich cancer cells [3] (control 1.77) stood at 3.98 ng/g. Moreover, the Weight of tumour in the assay on Ehrlich's cancer cell (7th day, control 0.09) is reported as 0.08 g; in the assay with Ehrlich's cancer cell (14th day, control 0.84) it was 0.67 g. The “Content of PGE in the tumour” value is given as 2.80 ng/g in the assay on Ehrlich's cancer cell (7th day, control 2.59) and 1.65 ng/g in the assay on Ehrlich's cancer cell (14th day, control 1.16). The “sedimentation of the dye-staff in the central part of the tumour (visual)” value in the assay with sarcoma 180 is given as “remarkable sedimentation of the dye-staff in the central part of the tumour”.
